Results: ChEMBL document CHEMBL3244157, “Synthesis and antiinflammatory evaluation of substituted isophthalonitriles, trimesonitriles, benzonitriles, and terephthalonitriles” (J Med Chem, 1978)

Columns and labels:
Rattus norvegicus [1] = assay: Antiinflammatory activity in Long Evans rat assessed as reduction of carrageenan-induced pedal edema at 200 mg/kg, po administered 1 hr prior to carrageenan challenge measured after 3 hrs relative to control; assay type: functional; design: scale not given: the % may be the effect or the level left
[2] = Toxicity in mouse assessed as overt effects; assay type: organism-based; details: in vivo
Rattus norvegicus [3] = assay: Antiinflammatory activity in Long Evans rat assessed as reduction of carrageenan-induced pedal edema at 100 mg/kg, po administered 1 hr prior to carrageenan challenge measured after 3 hrs relative to control; assay type: functional; design: scale not given: the % may be the effect or the level left
Rattus norvegicus [4] = assay: Antiinflammatory activity in Long Evans rat assessed as reduction of carrageenan-induced pedal edema at 150 mg/kg, po administered 1 hr prior to carrageenan challenge measured after 3 hrs relative to control; assay type: functional; design: scale not given: the % may be the effect or the level left

| SMILES | Activity (Rattus norvegicus [1]) [%] | LD50 [2] [mg/kg] | Activity (Rattus norvegicus [3]) [%] | Activity (Rattus norvegicus [4]) [%] |
| --- | --- | --- | --- | --- |
| CCC(CC)C(=O)Oc1c(Cl)c(Cl)c(C#N)c(Cl)c1Cl | 11 | > 300 |  |  |
| CCCCCC(=O)Oc1c(Cl)c(Cl)c(C#N)c(Cl)c1Cl | 0 | > 300 |  |  |
| CCCCCC(=O)Oc1c(Cl)c(Cl)c(C#N)c(Cl)c1C#N | 11 | > 300 |  |  |
| Cc1cccc(C#N)c1 | 20 | > 300 |  |  |
| CCCOc1c(Cl)c(Cl)c(C#N)c(Cl)c1C#N |  | 178 | 8 |  |
| N#Cc1ccc(Cl)cc1 | 30 | > 300 |  |  |
| N#Cc1c(Cl)c(C#N)c(Nc2ccc(Cl)c(Cl)c2)c(C#N)c1Cl |  | 56 |  |  |
| CCNc1c(C#N)c(Cl)c(C#N)c(NCC)c1C#N | 11 | 300 |  |  |
| CCCCNC(=O)Oc1c(Cl)c(Cl)c(C#N)c(Cl)c1C#N |  | 178 | 3 |  |
| CCCCOc1c(Cl)c(Cl)c(C#N)c(Cl)c1C#N |  | 178 | 8 |  |
| CCCCCCNc1c(F)c(C#N)c(F)c(F)c1C#N | 11 | > 300 |  |  |
| CCCCCCCCCCCC(=O)Oc1c(Cl)c(Cl)c(C#N)c(Cl)c1Cl | 11 | > 300 |  |  |
| N#Cc1cccc(C#N)c1Cl | 20 | 300 |  |  |
| C=CCNc1c(Cl)c(Cl)c(C#N)c(Cl)c1C#N | 17 | > 300 |  |  |
| Cc1ccc(C#N)cc1C | 25 | > 300 |  |  |
| CCCCS(=O)(=O)c1c(Cl)c(Cl)c(C#N)c(Cl)c1Cl | 12 | 237 |  |  |
| N#Cc1ccc(F)c(C#N)c1 |  | 178 |  | 25 |
| CCNc1c(F)c(C#N)c(F)c(F)c1C#N | 19 | 237 |  |  |
| N#Cc1c(O)c(Cl)c(Cl)c(C#N)c1Cl |  | 178 |  | 28 |
| N#Cc1cc(F)c(C#N)cc1F | 32 | 56 |  |  |
| N#Cc1c(F)c(F)c(C#N)c(Nc2ccc(O)cc2)c1F | 10 | > 300 |  |  |
| CCCCC(CC)C(=O)Oc1c(Cl)c(Cl)c(C#N)c(Cl)c1C#N (stereo not drawn) | 20 | > 300 |  |  |
| N#Cc1cc(C#N)c(Cl)cc1Cl |  | 178 |  | 5 |
| CNc1c(Cl)c(Cl)c(C#N)c(Cl)c1C#N | 22 | > 300 |  |  |
| CNc1c(C#N)c(Cl)c(C#N)c(NC)c1C#N | 20 | 300 |  |  |
| CCC(=O)Oc1c(Cl)c(Cl)c(C#N)c(Cl)c1Cl | 0 | > 300 |  |  |

| SMILES | Activity (Rattus norvegicus [1]) [%] | LD50 [2] [mg/kg] | Activity (Rattus norvegicus [3]) [%] | Activity (Rattus norvegicus [4]) [%] |
| --- | --- | --- | --- | --- |
| N#Cc1c(Cl)c(C#N)c(Nc2ccc(Br)cc2)c(C#N)c1Cl | 14 | 300 |  |  |
| CC(C)Nc1c(C#N)c(Cl)c(C#N)c(NC(C)C)c1C#N | 5 | 300 |  |  |
| N#Cc1ccc(C#N)cc1 | 27 | > 300 |  |  |
| CCCN(CCC)c1c(F)c(C#N)c(F)c(F)c1C#N | 22 | > 300 |  |  |
| N#Cc1cc(Cl)c(C#N)cc1Cl | 22 | > 300 |  |  |
| N#Cc1c(Cl)c(Cl)c(S(=O)(=O)CCCl)c(Cl)c1Cl | 0 | > 300 |  |  |
| N#Cc1c(Cl)c(Cl)c(OC(=O)C(Cl)(Cl)Cl)c(Cl)c1Cl | 17 | > 300 |  |  |
| CCCC(=O)Oc1c(Cl)c(Cl)c(C#N)c(Cl)c1Cl | 15 | > 300 |  |  |
| CCCCC(CC)CNc1c(Cl)c(Cl)c(C#N)c(Cl)c1C#N (stereo not drawn) | 0 | > 300 |  |  |
| N#Cc1cc(C#N)cc(C#N)c1 | 32 | 300 |  |  |
| CCCCCCCC(=O)Oc1c(Cl)c(Cl)c(C#N)c(Cl)c1C#N |  | 178 |  | 22 |
| CC(=O)Oc1c(Cl)c(Cl)c(C#N)c(Cl)c1C#N | 25 | 237 |  |  |
| CC(C)C(=O)Oc1c(Cl)c(Cl)c(C#N)c(Cl)c1Cl | 0 | > 300 |  |  |
| N#Cc1c(Cl)c(Cl)c(OC(=O)c2ccc(Cl)c(Cl)c2)c(Cl)c1Cl | 3 | > 300 |  |  |
| CCCC(=O)Oc1c(Cl)c(Cl)c(C#N)c(Cl)c1C#N |  | 178 |  | 14 |
| N#Cc1c(N)c(Cl)c(Cl)c(C#N)c1Cl | 25 | > 300 |  |  |
| CCCCC(=O)Oc1c(Cl)c(Cl)c(C#N)c(Cl)c1Cl | 2 | > 300 |  |  |
| N#Cc1ccc(Br)cc1 |  | 237 |  | 75 |
| N#Cc1ccc(F)cc1 | 17 | > 300 |  |  |
| N#Cc1ccccc1Cl | 26 | > 300 |  |  |
| N#Cc1c(Cl)c(C#N)c(Nc2ccc(N)cc2)c(C#N)c1Cl |  | 133 | 14 |  |
| COc1ccc(Nc2c(C#N)c(Cl)c(C#N)c(Cl)c2C#N)cc1OC |  | 178 |  | 13 |
| N#Cc1ccc(C#N)c(F)c1 | 49 | > 300 |  |  |
| N#Cc1c(Cl)c(Cl)c(OC(=O)Cc2ccccc2)c(Cl)c1Cl | 0 | > 300 |  |  |
| CCCCC1C(=O)N(c2ccccc2)N(c2ccccc2)C1=O [PHENYLBUTAZONE] |  | > 300 | 43.8 |  |
| CC(C)S(=O)(=O)c1c(Cl)c(Cl)c(C#N)c(Cl)c1Cl | 11 | > 300 |  |  |

| SMILES | Activity (Rattus norvegicus [1]) [%] | LD50 [2] [mg/kg] | Activity (Rattus norvegicus [3]) [%] | Activity (Rattus norvegicus [4]) [%] |
| --- | --- | --- | --- | --- |
| COc1c(Cl)c(Cl)c(C#N)c(Cl)c1C#N |  | 178 | 0 |  |
| CC(C)C(=O)Oc1c(Cl)c(Cl)c(C#N)c(Cl)c1C#N | 0 | 237 |  |  |
| CCCCCCCCCCS(=O)(=O)c1c(Cl)c(Cl)c(C#N)c(Cl)c1Cl | 0 | > 300 |  |  |
| N#Cc1ccccc1Br | 19 | > 300 |  |  |
| N#Cc1cc(Cl)c(C#N)cc1F | 22 | > 300 |  |  |
| N#Cc1cccc(C#N)c1 | 35 | 178 |  |  |
| CCCCCS(=O)(=O)c1c(Cl)c(Cl)c(C#N)c(Cl)c1Cl | 5 | 237 |  |  |
| N#Cc1c(Cl)c(Cl)c(S(=O)(=O)CCCc2ccccc2)c(Cl)c1Cl | 18 | 300 |  |  |
| N#Cc1c(Cl)cc(Cl)c(C#N)c1Cl | 8 | 100 |  |  |
| N#Cc1c(Cl)c(Cl)c(OC(=O)c2ccccc2Cl)c(Cl)c1Cl | 0 | > 300 |  |  |
| CCN(CC)c1c(F)c(C#N)c(F)c(F)c1C#N | 0 | > 300 |  |  |
| N#Cc1c(Cl)c(Cl)c(S(=O)(=O)CCCCCl)c(Cl)c1Cl | 15 | > 300 |  |  |
| CCC(=O)Oc1c(Cl)c(Cl)c(C#N)c(Cl)c1C#N | 11 | 178 |  |  |
| N#Cc1ccc(Br)c(C#N)c1 |  | 178 | 3 |  |
| N#Cc1c(Cl)c(C#N)c(Nc2ccc(Cl)cc2)c(C#N)c1Cl |  | 178 |  | 1 |
| CCCCNc1c(F)c(C#N)c(F)c(F)c1C#N | 14 | > 300 |  |  |
| N#Cc1ccc(C#N)c(Cl)c1 | 46 | > 300 |  |  |
| N#Cc1c(Cl)c(Cl)c(C#N)c(Cl)c1Cl | 13 | > 300 |  |  |
| CCOCCS(=O)(=O)c1c(Cl)c(Cl)c(C#N)c(Cl)c1Cl | 23 | 237 |  |  |
| CCCCCCS(=O)(=O)c1c(Cl)c(Cl)c(C#N)c(Cl)c1Cl |  | 178 |  | 2 |
| CCCCCCCC(=O)Oc1c(Cl)c(Cl)c(C#N)c(Cl)c1Cl | 0 | > 300 |  |  |
| CCCCC(CC)C(=O)Oc1c(Cl)c(Cl)c(C#N)c(Cl)c1Cl (stereo not drawn) | 15 | > 300 |  |  |
| CCCCNc1c(Cl)c(Cl)c(C#N)c(Cl)c1C#N | 17 | > 300 |  |  |
| N#Cc1c(Cl)c(Cl)c(OC(=O)c2ccccc2)c(C#N)c1Cl | 11 | > 300 |  |  |
| N#Cc1c(Cl)c(C#N)c(Nc2cccc(C(F)(F)F)c2)c(C#N)c1Cl | 29 | 237 |  |  |
